Here are results for 19 compounds from ChEMBL document CHEMBL2401651, “Discovery of novel P2 substituted 4-biaryl proline inhibitors of hepatitis C virus NS3 serine protease” (Bioorg Med Chem Lett, 2013).

As a reminder, the half-life is the time needed for the level to fall by half in the phase considered. Low values mean fast loss, high ones slow loss. In general, EC50 refers to the concentration giving half of the maximal effect. Low readings indicate a more potent agent, high ones a less potent agent. Usually IC50 stands for the concentration needed to halve the response being measured. The low end stands for greater potency in that assay, the high end for weaker potency in that assay. In general, Ki refers to a dissociation constant, usually derived from enzyme kinetics or from competition with a known ligand.

The nature of series [1]: Half life in human liver microsomes. In kind it is ADME, Microsome. On the technique in general: Microsomes from liver hold many membrane-bound enzymes, among them those of drug oxidation.
In another series the test system is Hepatitis C virus. The series can be described thus: Antiviral activity against Hepatitis C virus infected in human […] cells after 72 hrs by luciferase reporter gene assay. Type of series: functional, organism-based, Hepacivirus hominis. For orientation: In a reporter assay the amount or activity of a reporter protein is the signal.
Series [2] in a line: Inhibition of Hepatitis C virus genotype 1 NS3 protease.
The nature of series [3]: Permeability of the compound in human Caco2 cells. In kind it is ADME, cell-based. Conditions: Caco-2, read-out: permeability. In general terms: Caco-2 monolayers are a common model of the intestinal barrier.

`C=C[C@@H]1C[C@]1(NC(=O)[C@@H]1C[C@@H](n2cnc(-c3ccccc3)c2)CN1C(=O)[C@@H](NC(=O)OC1CCCC1)C(C)(C)C)C(=O)NS(=O)(=O)C1CC1` gave a half-life in series [1] of 3.68 h. In the series on Hepatitis C virus, a half-maximal response (EC50) required 1.34 µM. The compound further yielded an IC50 in series [2] of 0.0018 µM. In addition, the Papp in series [3] was 2 nm/s.

Turning to `C=C[C@@H]1C[C@]1(NC(=O)[C@@H]1C[C@@H](n2cc(-c3ccccc3)c(C)n2)CN1C(=O)[C@@H](NC(=O)OC1CCCC1)C(C)(C)C)C(=O)NS(=O)(=O)C1CC1`, the half-life in series [1] came to 0.1 h. Moreover, in the series with Hepatitis C virus, the EC50 came to 0.32 µM. Further, the IC50 in series [2] is 0.0025 µM. The Papp in series [3] amounted to 7 nm/s.

The compound `C=C[C@@H]1C[C@]1(NC(=O)[C@@H]1C[C@@H](c2nc(-c3ccccc3)cs2)CN1C(=O)[C@@H](NC(=O)OC1CCCC1)C(C)(C)C)C(=O)NS(=O)(=O)C1CC1` returned a half-life in series [1] of 2.38 h. The compound also came in with an EC50 with Hepatitis C virus of 0.58 µM. In series [2], this compound had an IC50 of 0.0032 µM. In addition, the Papp in series [3] is 44 nm/s.

For the compound `C=C[C@@H]1C[C@]1(NC(=O)[C@@H]1C[C@@H](c2csc(-c3ccccc3)n2)CN1C(=O)[C@@H](NC(=O)OC1CCCC1)C(C)(C)C)C(=O)NS(=O)(=O)C1CC1`, the half-life in series [1] is 2.25 h. The compound also had a concentration giving a half-maximal response (EC50) in the series on Hepatitis C virus of 0.175 µM. Also, inhibition in series [2] was half-maximal at 0.0027 µM (IC50). Further, in series [3], the Papp is 46 nm/s.

For the compound `C=C[C@@H]1C[C@]1(NC(=O)[C@@H]1C[C@@H](c2csc(-c3cccnc3)n2)CN1C(=O)[C@@H](NC(=O)OC1CCCC1)C(C)(C)C)C(=O)NS(=O)(=O)C1CC1`, in the series with Hepatitis C virus, a half-maximal effect (EC50) was put at 0.915 µM. Also, in series [2], the half-inhibitory concentration (IC50) was determined as 0.012 µM.

On to `C=C[C@@H]1C[C@]1(NC(=O)[C@@H]1C[C@@H](c2csc(-c3ccc(OC)cc3)n2)CN1C(=O)[C@@H](NC(=O)OC1CCCC1)C(C)(C)C)C(=O)NS(=O)(=O)C1CC1`, for which the EC50 in the series with Hepatitis C virus was 0.53 µM. Besides, the IC50 in series [2] was determined as 0.0052 µM.

Take `C=C[C@@H]1C[C@]1(NC(=O)[C@@H]1C[C@@H](c2csc(-c3cccc(OC)c3)n2)CN1C(=O)[C@@H](NC(=O)OC1CCCC1)C(C)(C)C)C(=O)NS(=O)(=O)C1CC1`: a half-maximal response with Hepatitis C virus (EC50) required 0.14 µM. Also, half-maximal inhibition in series [2] (IC50) was put at 0.0034 µM.

`C=C[C@@H]1C[C@]1(NC(=O)[C@@H]1C[C@@H](c2csc(-c3ccccc3OC)n2)CN1C(=O)[C@@H](NC(=O)OC1CCCC1)C(C)(C)C)C(=O)NS(=O)(=O)C1CC1` displayed a concentration for a half-maximal effect (EC50) in the series on Hepatitis C virus of 0.035 µM. This compound gave an IC50 in series [2] of 0.00074 µM.

Take `C=C[C@@H]1C[C@]1(NC(=O)[C@@H]1C[C@@H](c2csc(-c3ccccc3OCC)n2)CN1C(=O)[C@@H](NC(=O)OC1CCCC1)C(C)(C)C)C(=O)NS(=O)(=O)C1CC1`: the EC50 with Hepatitis C virus came to 0.037 µM. Half-maximal inhibition in series [2] (IC50) required 0.00078 µM.

As for `C=C[C@@H]1C[C@]1(NC(=O)[C@@H]1C[C@@H](c2csc(-c3ccccc3C)n2)CN1C(=O)[C@@H](NC(=O)OC1CCCC1)C(C)(C)C)C(=O)NS(=O)(=O)C1CC1`, in the series with Hepatitis C virus, a half-maximal response (EC50) required 0.8 µM. The compound also showed an IC50 in series [2] of 0.006 µM.

`C=C[C@@H]1C[C@]1(NC(=O)[C@@H]1C[C@@H](c2csc(-c3ccccc3F)n2)CN1C(=O)[C@@H](NC(=O)OC1CCCC1)C(C)(C)C)C(=O)NS(=O)(=O)C1CC1` had an EC50 in the series with Hepatitis C virus of 0.235 µM. Moreover, in series [2], the IC50 stood at 0.0018 µM.

Consider `C=C[C@@H]1C[C@]1(NC(=O)[C@@H]1C[C@@H](c2csc(-c3cccc(OC)c3OC)n2)CN1C(=O)[C@@H](NC(=O)OC1CCCC1)C(C)(C)C)C(=O)NS(=O)(=O)C1CC1`, for which, in the series with Hepatitis C virus, a half-maximal response (EC50) required 0.24 µM. Also, in series [2], 0.0041 µM corresponded to half-maximal inhibition (IC50).

The compound `C=C[C@@H]1C[C@]1(NC(=O)[C@@H]1C[C@@H](c2csc(-c3ccc(OC)cc3OC)n2)CN1C(=O)[C@@H](NC(=O)OC1CCCC1)C(C)(C)C)C(=O)NS(=O)(=O)C1CC1` displayed an EC50 in the series on Hepatitis C virus of 0.089 µM. The compound also yielded an IC50 in series [2] of 0.0022 µM.

`C=C[C@@H]1C[C@]1(NC(=O)[C@@H]1C[C@@H](c2csc(-c3c(OC)cccc3OC)n2)CN1C(=O)[C@@H](NC(=O)OC1CCCC1)C(C)(C)C)C(=O)NS(=O)(=O)C1CC1`: the EC50 in the series on Hepatitis C virus came out at 2.2 µM. Besides, the IC50 in series [2] was determined as 0.017 µM.

Compound `C=C[C@@H]1C[C@]1(NC(=O)[C@@H]1C[C@@H](c2csc(-c3cc(OC)ccc3OC)n2)CN1C(=O)[C@@H](NC(=O)OC1CCCC1)C(C)(C)C)C(=O)NS(=O)(=O)C1CC1` came in with a half-life in series [1] of 1.15 h. This compound gave an EC50 in the series on Hepatitis C virus of 0.016 µM. Moreover, in series [2], half-maximal inhibition (IC50) was put at 0.0009 µM and the affinity corresponds to a Ki of 0.00023 µM. Further, the Papp in series [3] amounted to 70 nm/s.

Take `C=C[C@@H]1C[C@]1(NC(=O)[C@@H]1C[C@@H](c2csc(-c3cc(C)ccc3OC)n2)CN1C(=O)[C@@H](NC(=O)OC1CCCC1)C(C)(C)C)C(=O)NS(=O)(=O)C1CC1`: the EC50 in the series with Hepatitis C virus was found to be 0.027 µM. Further, the IC50 in series [2] worked out at 0.0017 µM.

In the series on Hepatitis C virus, `C=C[C@@H]1C[C@]1(NC(=O)[C@@H]1C[C@@H](c2csc(-c3cc(F)ccc3OC)n2)CN1C(=O)[C@@H](NC(=O)OC1CCCC1)C(C)(C)C)C(=O)NS(=O)(=O)C1CC1` returned an EC50 of 0.028 µM. The compound also registered an IC50 in series [2] of 0.0011 µM.

For the compound `C=C[C@@H]1C[C@]1(NC(=O)[C@@H]1C[C@@H](c2csc(-c3cc(OC)ccc3OC)n2)CN1C(=O)[C@@H](NC(=O)OC1CCCC1)C(C)(C)C)C(=O)NS(=O)(=O)C1(C)CC1`, the half-life in series [1] turned out to be 0.95 h. In the series with Hepatitis C virus, the EC50 came out at 0.009 µM. In series [2], the IC50 worked out at 0.0011 µM. Moreover, in series [3], the Papp is 120 nm/s.

As to `C=C[C@@H]1C[C@]1(NC(=O)[C@@H]1C[C@@H](n2cc(-c3ccccc3)nn2)CN1C(=O)[C@@H](NC(=O)OC1CCCC1)C(C)(C)C)C(=O)NS(=O)(=O)C1CC1`, the half-life in series [1] is 1.57 h. For the same compound, a half-maximal effect with Hepatitis C virus (EC50) was put at 0.43 µM. Moreover, in series [2], the IC50 came out at 0.0027 µM. In addition, the Papp in series [3] came out at 11 nm/s.
